Assay results reported in patent US20080194406A1, “METHOD FOR TREATING AGRICULTURAL CROPS USING MATERIALS ASSOCIATED WITH TUBULAR CARRIERS” (NaturalNano, Inc., priority 2005, published 2008).

Test: release profiles of drugs from halloysite tubule compositions, relative to total release amounts (FIGS. 4 and 5)
Assay type: physicochemical
Settings: release from mineral-derived tubule composition relative to total release amount; FIG. 4 (Tetracycline), FIG. 5 (Khellin)
Text: FIGS. 4 and 5, respectively illustrate, relative to total release amounts, the release profiles for two drugs (Tetracycline and Khellin), wherein prolonged application periods are desired.

release profile extends for: several days
SMILES: COc1c2occc2c(OC)c2c(=O)cc(C)oc12 [Khellin]
